Measurements published in patent US20060046968A1, “Prodrug substituted benzoxazoles as estrogenic agents” (priority 2004, published 2006).

Tests used:
[1] = system: Progesterone receptor mRNA; test: Progesterone receptor mRNA regulation in the preoptic area of the rat brain; type: in vivo; details: 10 mg/kg
[2] = system: Male HLA-B27 rats; test: HLA-B27 rat model of arthritis: joint scores; type: in vivo; details: Study 2
[3] = system: Male HLA-B27 rats; test: HLA-B27 rat test for inflammatory bowel disease: histological scoring of colon; type: in vivo; details: Study B, oral 4 weeks
Protocol: Representative metabolites of compounds of the invention were evaluated in the HLA rat standard pharmacological test procedure, which emulates inflammatory bowel disease in humans. The following briefly describes the procedure used and results obtained. […] Louis) and water. Stool quality was observed daily and graded according to the following scale: Diarrhea=3; soft stool=2; normal stool=1. At the end of the study, serum was collected and stored at −70° C. A section of colon was prepared for histological analysis and an additional segment was analyzed for myeloperoxidase activity. In Study A, rats (22-26 weeks old) were dosed subcutaneously once per day for seven days with one of the regimens listed below. […] Histological analysis. Colonic tissue was immersed in 10% neutral buffered formalin. Each specimen of colon was separated into four samples for evaluation. The formalin-fixed tissues were processed in a Tissue-Tek® vaccum infiltration processor (Miles, Inc; West Haven, Conn.) for paraffin embedding. The samples were sectioned at 5 μm and then stained with hematoxylin and eosin (H&E) for blinded histological evaluations using a scale modified after Boughton-Smith. After the scores were completed, the samples were unblinded, and data were tabulated and analyzed by ANOVA linear modeling with multiple mean comparisons. Sections of colonic tissue were evaluated for several disease indicators and given relative scores.

[4] = system: Male HLA-B27 rats; test: HLA rat test for inflammatory bowel disease: stool character (3 = diarrhea; 2 = soft stool; 1 = normal stool); type: in vivo; details: Study B
[5] = system: Sexually immature 129 SvE mice; test: Mouse uterotrophic test procedure (Procedure 2); type: in vivo; details: compound 50 mg/kg s.c., days 22-25
[6] = molecular target: T1, human ERα (Homo sapiens, UniProt P03372); test: ER radioligand binding competition, ERα; details: competition with [3H]-17β-estradiol; read-out: ER-α IC50
T1 construct: These templates contained amino acids M250-V595 of human ERα; His (N); Flag (C); made in house; host or cells: E. coli BL21 (DE3), clarified lysate
T1 sequence (P03372 250-595): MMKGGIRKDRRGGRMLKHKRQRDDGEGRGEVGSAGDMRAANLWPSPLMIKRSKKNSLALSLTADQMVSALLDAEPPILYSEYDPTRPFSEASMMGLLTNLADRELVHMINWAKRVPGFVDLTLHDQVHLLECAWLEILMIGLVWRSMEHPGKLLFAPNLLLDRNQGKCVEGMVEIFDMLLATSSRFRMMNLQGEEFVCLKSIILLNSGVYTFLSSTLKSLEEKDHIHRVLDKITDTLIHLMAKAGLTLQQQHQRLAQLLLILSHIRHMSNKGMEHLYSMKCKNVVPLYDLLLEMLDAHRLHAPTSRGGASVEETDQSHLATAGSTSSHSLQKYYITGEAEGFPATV

[7] = molecular target: T2, human ERβ (Homo sapiens, UniProt Q92731); test: ER radioligand binding competition, ERβ
T2 construct: Flag (C); made in house; host or cells: E. coli BL21 (DE3), clarified lysate
T2 sequence (Q92731 214-530): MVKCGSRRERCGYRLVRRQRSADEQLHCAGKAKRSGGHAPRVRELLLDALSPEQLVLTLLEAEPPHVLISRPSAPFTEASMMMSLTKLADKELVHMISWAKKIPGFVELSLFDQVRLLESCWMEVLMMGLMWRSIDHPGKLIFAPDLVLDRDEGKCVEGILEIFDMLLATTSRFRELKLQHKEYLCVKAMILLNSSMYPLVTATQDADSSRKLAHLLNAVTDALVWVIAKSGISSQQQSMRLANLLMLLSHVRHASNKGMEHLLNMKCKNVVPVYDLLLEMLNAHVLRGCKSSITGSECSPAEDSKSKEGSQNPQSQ

[8] = system: Sexually immature Sprague-Dawley rats; test: Rat uterotrophic test procedure (Procedure 1); type: in vivo; details: compound 2 mg/rat + 17α-ethinyl, 17β-estradiol 0.06 μg/rat s.c. (antagonist mode)
[9] = oral 20 mg/kg (10 mg/kg days 1-14), Day 16
[10] = oral 20 mg/kg (10 mg/kg days 1-14), Day 17
[11] = oral 20 mg/kg (10 mg/kg days 1-14), Day 19
[12] = oral 20 mg/kg (10 mg/kg days 1-14), Day 22
[13] = oral 20 mg/kg (10 mg/kg days 1-14), Day 23
[14] = oral 20 mg/kg (10 mg/kg days 1-14), Day 26
[15] = 10 mg/kg days 1-14, then 20 mg/kg

## C=CCc1cc(O)cc2nc(-c3ccc(O)c(F)c3)oc12 [Example 34, 7-ALLYL-2-(3-FLUORO-4-HYDROXYPHENYL)-1,3-BENZOXAZOL-5-OL]
[1]
  Progesterone receptor mRNA (mean ± stdev): 511.5 ± 23.7 arbitrary units
[2]; oral 10 mg/kg, Day 1
  Joint inflammation score: 0
[2]; oral 10 mg/kg, Day 2
  Joint inflammation score: 0
[2]; oral 10 mg/kg, Day 3
  Joint inflammation score: 0
[2]; oral 10 mg/kg, Day 4
  Joint inflammation score: 0
[2]; oral 10 mg/kg, Day 5
  Joint inflammation score: 0
[2]; oral 10 mg/kg, Day 6
  Joint inflammation score: 0
[2]; oral 10 mg/kg, Day 7
  Joint inflammation score: 0
[2]; oral 10 mg/kg, Day 8
  Joint inflammation score: 0.25
[2]; oral 10 mg/kg, Day 9
  Joint inflammation score: 0.75
[2]; oral 10 mg/kg, Day 10
  Joint inflammation score: 0.5
[2]; oral 10 mg/kg, Day 11
  Joint inflammation score: 0.5
[2]; oral 10 mg/kg, Day 12
  Joint inflammation score: 0.25
[2]; oral 10 mg/kg, Day 13
  Joint inflammation score: 0.5
[2]; oral 10 mg/kg, Day 14
  Joint inflammation score: 0
[2]; oral 10 mg/kg, Day 15
  Joint inflammation score: 0.5
[2]; oral 10 mg/kg, Day 16
  Joint inflammation score: 0.5
[2]; oral 10 mg/kg, Day 17
  Joint inflammation score: 0.25
[2]; oral 10 mg/kg, Day 18
  Joint inflammation score: 0.75
[2]; oral 10 mg/kg, Day 19
  Joint inflammation score: 1
[2]; oral 10 mg/kg, Day 22
  Joint inflammation score: 1
[2]; oral 10 mg/kg, Day 23
  Joint inflammation score: 1.75
[2]; oral 10 mg/kg, Day 24
  Joint inflammation score: 1.75
[2]; oral 10 mg/kg, Day 25
  Joint inflammation score: 2
[2]; oral 10 mg/kg, Day 26
  Joint inflammation score: 3
[3]; 10 mg/kg
  Fibrosis (0-2), mean ± SD: 0.31 ± 0.32
  Inflammation (0-3), mean ± SD: 1.81 ± 0.13
  Lesion depth (0-2), mean ± SD: 0.63 ± 0.32
  Total score, mean ± SD: 3.50 ± 1.10
  Ulceration (0-2), mean ± SD: 0.75 ± 0.46
[4]; oral 10 mg/kg, Day 1
  Stool Character (group's average score): 1
[4]; oral 10 mg/kg, Day 2
  Stool Character (group's average score): 1
[4]; oral 10 mg/kg, Day 3
  Stool Character (group's average score): 1
[4]; oral 10 mg/kg, Day 4
  Stool Character (group's average score): 1.25
[4]; oral 10 mg/kg, Day 5
  Stool Character (group's average score): 2
[4]; oral 10 mg/kg, Day 6
  Stool Character (group's average score): 1.75
[4]; oral 10 mg/kg, Day 7
  Stool Character (group's average score): 1.75
[4]; oral 10 mg/kg, Day 8
  Stool Character (group's average score): 1.5
[4]; oral 10 mg/kg, Day 9
  Stool Character (group's average score): 1.5
[4]; oral 10 mg/kg, Day 10
  Stool Character (group's average score): 1.25
[4]; oral 10 mg/kg, Day 11
  Stool Character (group's average score): 1.5
[4]; oral 10 mg/kg, Day 12
  Stool Character (group's average score): 1.5
[4]; oral 10 mg/kg, Day 13
  Stool Character (group's average score): 1.25
[4]; oral 10 mg/kg, Day 14
  Stool Character (group's average score): 1.25
[4]; oral 10 mg/kg, Day 15
  Stool Character (group's average score): 1.25
[4]; oral 10 mg/kg, Day 16
  Stool Character (group's average score): 1
[4]; oral 10 mg/kg, Day 17
  Stool Character (group's average score): 1
[4]; oral 10 mg/kg, Day 18
  Stool Character (group's average score): 1.25
[4]; oral 10 mg/kg, Day 19
  Stool Character (group's average score): 1
[4]; oral 10 mg/kg, Day 22
  Stool Character (group's average score): 1
[4]; oral 10 mg/kg, Day 23
  Stool Character (group's average score): 1
[4]; oral 10 mg/kg, Day 24
  Stool Character (group's average score): 1
[4]; oral 10 mg/kg, Day 25
  Stool Character (group's average score): 1
[4]; oral 10 mg/kg, Day 26
  Stool Character (group's average score): 1

## C=Cc1cc(O)cc2nc(-c3ccc(O)c(F)c3F)oc12 [Example 26, 2-(2,3-DIFLUORO-4-HYDROXYPHENYL)-7-VINYL-1,3-BENZOXAZOL-5-OL]
[1]
  Progesterone receptor mRNA (mean ± stdev): 467.8 ± 66.7 arbitrary units
[5]
  mean uterine weight ± SEM: 9.0 ± 0.3 mg

## C=C(F)c1cc(O)cc2nc(-c3ccc(O)c(F)c3)oc12 [Example 64, 2-(3-FLUORO-4-HYDROXYPHENYL)-7-(1-FLUOROVI NYL)-1,3-BENZOXAZOL-5-OL]
[6]
  IC50: 376 nM
[1]
  Progesterone receptor mRNA (mean ± stdev): 431.3 ± 65.6 arbitrary units
[7]
  IC50: 3 nM
[5]
  mean uterine weight ± SEM: 9.8 ± 0.7 mg

## C=Cc1cc(O)cc2nc(-c3ccc(O)cc3F)oc12 [Example 25, 2-(2-FLUORO-4-HYDROXYPHENYL)-7-VINYL-1,3-BENZOXAZOL-5-OL]
[1]
  Progesterone receptor mRNA (mean ± stdev): 447.0 ± 60.7 arbitrary units
[2]; oral 10 mg/kg, Day 1
  Joint inflammation score: 0
[2]; oral 10 mg/kg, Day 2
  Joint inflammation score: 0
[2]; oral 10 mg/kg, Day 3
  Joint inflammation score: 0
[2]; oral 10 mg/kg, Day 4
  Joint inflammation score: 0
[2]; oral 10 mg/kg, Day 5
  Joint inflammation score: 0
[2]; oral 10 mg/kg, Day 6
  Joint inflammation score: 0
[2]; oral 10 mg/kg, Day 7
  Joint inflammation score: 0
[2]; oral 10 mg/kg, Day 8
  Joint inflammation score: 1
[2]; oral 10 mg/kg, Day 10
  Joint inflammation score: 2.25
[2]; oral 10 mg/kg, Day 11
  Joint inflammation score: 2.25
[2]; oral 20 mg/kg (10 mg/kg days 1-14), Day 15
  Joint inflammation score: 3.75
[2]; [9]
  Joint inflammation score: 3
[2]; [10]
  Joint inflammation score: 2.75
[2]; [11]
  Joint inflammation score: 1.5
[2]; [12]
  Joint inflammation score: 1.25
[2]; [13]
  Joint inflammation score: 2.5
[2]; [14]
  Joint inflammation score: 1.75
[5]
  mean uterine weight ± SEM: 9.7 ± 1.0 mg
[3]; [15]
  Fibrosis (0-2), mean ± SD: 0.31 ± 0.13
  Inflammation (0-3), mean ± SD: 1.50 ± 0.35
  Lesion depth (0-2), mean ± SD: 0.44 ± 0.24
  Total score, mean ± SD: 2.69 ± 0.52
  Ulceration (0-2), mean ± SD: 0.44 ± 0.24
[4]; oral 10 mg/kg, Day 1
  Stool Character (group's average score): 1
[4]; oral 10 mg/kg, Day 2
  Stool Character (group's average score): 1
[4]; oral 10 mg/kg, Day 3
  Stool Character (group's average score): 1.25
[4]; oral 10 mg/kg, Day 4
  Stool Character (group's average score): 1.25
[4]; oral 10 mg/kg, Day 5
  Stool Character (group's average score): 1.75
[4]; oral 10 mg/kg, Day 6
  Stool Character (group's average score): 1.5
[4]; oral 10 mg/kg, Day 9
  Stool Character (group's average score): 1.75
[4]; oral 10 mg/kg, Day 10
  Stool Character (group's average score): 1.5
[4]; oral 10 mg/kg, Day 12
  Stool Character (group's average score): 1.75
[4]; oral 10 mg/kg, Day 13
  Stool Character (group's average score): 2.25
[4]; [9]
  Stool Character (group's average score): 1.5
[4]; [10]
  Stool Character (group's average score): 1.5
[4]; oral 20 mg/kg (10 mg/kg days 1-14), Day 18
  Stool Character (group's average score): 1.5
[4]; [11]
  Stool Character (group's average score): 1.25
[4]; [12]
  Stool Character (group's average score): 1.25
[4]; [13]
  Stool Character (group's average score): 1.25
[4]; oral 20 mg/kg (10 mg/kg days 1-14), Day 24
  Stool Character (group's average score): 1.25
[4]; oral 20 mg/kg (10 mg/kg days 1-14), Day 25
  Stool Character (group's average score): 1.25
[4]; [14]
  Stool Character (group's average score): 1.25

## Oc1ccc(-c2nc3cc(O)ccc3o2)cc1 [Example 12, 2-(4-HYDROXYPHENYL)-1,3-BENZOXAZOL-5-OL]
[8]
  mean uterine weight ± SEM: 60.2 ± 4.0 mg
[1]
  Progesterone receptor mRNA (mean ± stdev): 256.2 ± 42.3 arbitrary units
[5]
  mean uterine weight ± SEM: 13.7 ± 0.82 mg
